Data from patent US11725037B2, “Peptide dual agonists of GIPR and GLP2R” (University of Copenhagen, priority 2017, dated 2023).

How the values were obtained:
human GIP receptor = target: T1, human GIP receptor (Homo sapiens, UniProt P48546); test: cAMP accumulation assay (HitHunter cAMP XS) in transiently transfected COS-7 cells expressing the human GIP receptor; type: cell-based; settings: for Emax at 10 µM: COS-7, read-out: Emax (10 μM), GIP receptor; for EC50: logEC50, GIP receptor, log value, cAMP, COS-7
T1 construct: host or cells: COS-7 (transient, calcium phosphate; pCMV-Script vector)
T1 sequence (P48546 22-466): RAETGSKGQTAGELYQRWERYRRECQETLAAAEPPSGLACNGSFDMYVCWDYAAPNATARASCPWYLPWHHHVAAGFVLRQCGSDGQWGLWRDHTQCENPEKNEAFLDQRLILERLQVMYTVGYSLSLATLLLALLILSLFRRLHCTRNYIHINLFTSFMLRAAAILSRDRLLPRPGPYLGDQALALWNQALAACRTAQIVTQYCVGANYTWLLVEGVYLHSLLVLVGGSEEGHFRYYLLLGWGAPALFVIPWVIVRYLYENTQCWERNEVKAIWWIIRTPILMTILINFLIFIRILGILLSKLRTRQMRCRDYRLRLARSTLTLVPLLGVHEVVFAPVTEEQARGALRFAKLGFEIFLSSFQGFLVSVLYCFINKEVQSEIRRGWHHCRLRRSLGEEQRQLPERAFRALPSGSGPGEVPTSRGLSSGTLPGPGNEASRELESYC
Procedure: (§1) The day after, the cells were washed twice with Hepes buffered saline (HBS) buffer and incubated with HBS and 1 mM 3-isobutyl-1-methylxanthine (IBMX) for 30 min at 37° C. Ligands were added and incubated for 30 min at 37° C. The HitHunter™ cAMP XS assay (DiscoveRx) was carried out according to the manufacturer's instructions.

human GLP-2 receptor = target: T2, human GLP-2 receptor (Homo sapiens, UniProt O95838); test: cAMP accumulation assay (HitHunter cAMP XS) in transiently transfected COS-7 cells expressing the human GLP-2 receptor; type: cell-based; settings: for Emax at 10 µM: COS-7, read-out: Emax (10 μM), GLP-2 receptor; for logEC50, GLP-2 receptor: log value
T2 construct: host or cells: COS-7 (transient, calcium phosphate; pCMV-Script vector)
T2 sequence (O95838 1-553): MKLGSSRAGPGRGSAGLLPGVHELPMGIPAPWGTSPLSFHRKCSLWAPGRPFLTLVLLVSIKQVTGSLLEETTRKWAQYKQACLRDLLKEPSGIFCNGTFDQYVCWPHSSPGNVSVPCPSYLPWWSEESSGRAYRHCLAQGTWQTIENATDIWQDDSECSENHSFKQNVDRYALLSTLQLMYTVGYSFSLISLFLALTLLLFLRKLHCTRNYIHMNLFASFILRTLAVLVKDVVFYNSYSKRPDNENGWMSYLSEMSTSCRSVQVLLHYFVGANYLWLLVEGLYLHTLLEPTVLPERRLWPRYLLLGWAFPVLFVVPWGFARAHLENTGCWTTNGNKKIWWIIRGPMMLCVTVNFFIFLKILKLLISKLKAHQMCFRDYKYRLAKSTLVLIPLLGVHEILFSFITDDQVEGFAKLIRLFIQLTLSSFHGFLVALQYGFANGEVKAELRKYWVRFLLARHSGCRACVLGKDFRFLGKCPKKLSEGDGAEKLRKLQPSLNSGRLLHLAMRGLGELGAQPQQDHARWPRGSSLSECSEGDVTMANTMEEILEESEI
Procedure: as §1

[1] = system: mouse mesenchymal osteoblast precursor cell line KS483; test: Osteoblast differentiation assay: intracellular alkaline phosphatase activity (ALP) at day 8; type: cell-based; settings: 1 μM, day 8, KS483 cells, mean±sem, n=6
Procedure: Aim: Testing the effects of 2 test compounds on differentiation and activity of osteoblasts in vitro in a preliminary set-up.
Method: One concentration of each test compound (1 μM) is tested. Effects on osteoblast differentiation are studied using a mouse mesenchymal osteoblast precursor cell line KS483. The cells are cultured on plastic surface in 96-well plates for 8 days, allowing them to differentiate into mature bone-forming osteoblasts. Baseline with vehicle • 1. Compound 3: Vehicle • 2. Compound 5: GIP-GLP-2 agonist 3 (SEQ ID NO:3) • 3. Compound 6: GIP-GLP-2 agonist 19 (SEQ ID NO:19)
In osteoblast differentiation assay: Intracellular alkaline phosphatase activity (ALP) at day 8 as an index of the number of mature osteoblasts formed.

[2] = system: bone resorption (serum C-terminal cross-linking telopeptide of type I collagen, CTX); test: Human study 1: bone resorption by serum CTX after subcutaneous injection of GIP or GLP-2; type: in vivo
Procedure: Method: Eight healthy young men were enrolled. […] Participants arrived in the morning (fasted overnight) and received the injection around 8.30 a.m. Blood samples were collected before (−25 and −10 min) and every 30 minutes after injection (30, 60, 90, 120, 180 and 240 min). After last participant's last visit, bone resorption was determined by measurements of serum C-terminal cross-linking telopeptide of type I collagen (CTX; IDS Immunodiagnostic Systems GmbH, Frankfurt am Main, Germany)

Row | SMILES | Emax at 10 µM (human GIP receptor) [%] | potency (and efficacy) on the GIP receptor compared with native GIP, in words (human GIP receptor; Table 1) | fold (fold change of native GIP), GIP receptor (human GIP receptor; Table 1, EC50 relative to native GIP) [fold] | EC50 (human GIP receptor; Table 1) [nM] | Emax at 10 µM (human GLP-2 receptor) [%] | fold (fold change of native GLP-2), GLP-2 receptor (human GLP-2 receptor; Table 1, EC50 relative to native GLP-2) [fold] | EC50 (human GLP-2 receptor; logEC50, GLP-2 receptor, Table 1, cAMP, COS-7) [nM] | ALP activity compared to vehicle [1] [%] | potency and efficacy on the GLP-2R compared with native GLP-2, in words (human GLP-2 receptor; Table 1) | logEC50, GLP-2 receptor (human GLP-2 receptor; Table 1, cAMP, COS-7) | logEC50, GLP-2 receptor (human GLP-2 receptor; Table 2, cAMP, COS-7) | reduction in bone resorption (CTX) ([2]; 200 μg GIP and 800 μg GLP-2, each alone, s.c., restated in Example 4) [%] | bone resorption (CTX), maximum effect, % of base line ([2]; human GIP 200 μg s.c., healthy young men, 90 min after injection)
1 | CC[C@H](C)[C@H](NC(=O)[C@H](Cc1ccccc1)NC(=O)[C@H](CC(=O)O)NC(=O)[C@H](CCCNC(=N)N)NC(=O)[C@H](C)NC(=O)[C@H](C)NC(=O)[C@H](CC(C)C)NC(=O)[C@H](CC(N)=O)NC(=O)[C@H](CC(=O)O)NC(=O)[C@H](CC(C)C)NC(=O)[C@@H](NC(=O)[C@@H](NC(=O)[C@H](CO)NC(=O)[C@H](Cc1ccc(O)cc1)NC(=O)[C@H](CC(=O)O)NC(=O)[C@H](CO)NC(=O)[C@@H](NC(=O)[C@H](Cc1ccccc1)NC(=O)[C@@H](NC(=O)CNC(=O)[C@H](CC(=O)O)NC(=O)[C@H](C)NC(=O)[C@@H](N)Cc1c[nH]cn1)[C@@H](C)O)[C@@H](C)CC)[C@@H](C)O)[C@@H](C)CC)C(=O)N[C@@H](CC(N)=O)C(=O)N[C@@H](Cc1c[nH]c2ccccc12)C(=O)N[C@@H](CC(C)C)C(=O)N[C@H](C(=O)N[C@@H](CCC(N)=O)C(=O)N[C@H](C(=O)N[C@@H](CCCCN)C(=O)N[C@H](C(=O)N[C@H](C(=O)N[C@@H](CC(=O)O)C(=O)O)[C@@H](C)O)[C@@H](C)CC)[C@@H](C)O)[C@@H](C)CC [Co-agonist 3] | 100 | same potency as native GIP(1-42) | 1.2 | 0.107 | 100 | 18 | 21.4 | 112±5.6 |  |  |  |  | 
2 | CC[C@H](C)[C@H](NC(=O)[C@H](Cc1ccccc1)NC(=O)[C@H](CC(=O)O)NC(=O)[C@H](CCCNC(=N)N)NC(=O)[C@H](C)NC(=O)[C@H](C)NC(=O)[C@H](CC(C)C)NC(=O)[C@H](CC(N)=O)NC(=O)[C@H](CC(=O)O)NC(=O)[C@H](CC(C)C)NC(=O)[C@@H](NC(=O)[C@@H](NC(=O)[C@H](CO)NC(=O)[C@H](Cc1ccc(O)cc1)NC(=O)[C@H](CC(=O)O)NC(=O)[C@H](CO)NC(=O)[C@@H](NC(=O)[C@H](Cc1ccccc1)NC(=O)[C@@H](NC(=O)CNC(=O)[C@H](CC(=O)O)NC(=O)[C@H](C)NC(=O)[C@@H](N)Cc1c[nH]cn1)[C@@H](C)O)[C@@H](C)CC)[C@@H](C)O)[C@@H](C)CC)C(=O)N[C@@H](CC(N)=O)C(=O)N[C@@H](Cc1c[nH]c2ccccc12)C(=O)N[C@@H](CC(C)C)C(=O)N[C@H](C(=O)N[C@@H](CCC(N)=O)C(=O)N[C@H](C(=O)N[C@@H](CCCCN)C(=O)NCC(=O)N[C@@H](CCCCN)C(=O)N[C@@H](CCCCN)C(=O)O)[C@@H](C)O)[C@@H](C)CC [Co-agonist 19] | 93 | almost the same potency and efficacy |  | 0.251 | 91 |  |  | 115±8.9 | almost the same potency and efficacy |  |  |  | 
3 | CC[C@H](C)[C@H](NC(=O)[C@H](CO)NC(=O)[C@H](Cc1ccc(O)cc1)NC(=O)[C@H](CC(=O)O)NC(=O)[C@H](CO)NC(=O)[C@@H](NC(=O)[C@H](Cc1ccccc1)NC(=O)[C@@H](NC(=O)CNC(=O)[C@H](CCC(=O)O)NC(=O)[C@H](C)NC(=O)[C@@H](N)Cc1ccc(O)cc1)[C@@H](C)O)[C@@H](C)CC)C(=O)N[C@@H](C)C(=O)N[C@@H](CCSC)C(=O)N[C@@H](CC(=O)O)C(=O)N[C@@H](CCCCN)C(=O)N[C@H](C(=O)N[C@@H](Cc1c[nH]cn1)C(=O)N[C@@H](CCC(N)=O)C(=O)N[C@@H](CCC(N)=O)C(=O)N[C@@H](CC(=O)O)C(=O)N[C@@H](Cc1ccccc1)C(=O)N[C@H](C(=O)N[C@@H](CC(N)=O)C(=O)N[C@@H](Cc1c[nH]c2ccccc12)C(=O)N[C@@H](CC(C)C)C(=O)N[C@@H](CC(C)C)C(=O)N[C@@H](C)C(=O)N[C@@H](CCC(N)=O)C(=O)N[C@@H](CCCCN)C(=O)NCC(=O)N[C@@H](CCCCN)C(=O)N[C@@H](CCCCN)C(=O)N[C@@H](CC(N)=O)C(=O)N[C@@H](CC(=O)O)C(=O)N[C@@H](Cc1c[nH]c2ccccc12)C(=O)N[C@@H](CCCCN)C(=O)N[C@@H](Cc1c[nH]cn1)C(=O)N[C@@H](CC(N)=O)C(=O)N[C@H](C(=O)N[C@H](C(=O)N[C@@H](CCC(N)=O)C(=O)O)[C@@H](C)O)[C@@H](C)CC)C(C)C)[C@@H](C)CC [GIP, reference compound] |  |  |  |  |  |  |  |  |  | no activation | no activation | ~50 | 56.2±11.2 % of base line
